# Results published in patent US20240100065A1, “METHODS FOR TREATING RECEPTOR-INTERACTING PROTEIN KINASE 1-MEDIATED DISEASES” (Genzyme Corporation, priority 2022, published 2024).
# Like-named read-outs stand apart in the source and are kept apart here.
# Assay: Plasma pharmacokinetics after single and repeated oral doses
# Type: in vivo, healthy adult participants (human)
# Details: for Time to steady state (Tss), 50% median, point estimate / Time to steady state (Tss), 90% quantile, point estimate: overall; for AUC / AUC(0-t) / Cmax / Tmax / Vd/F: human, plasma, oral; for Vd/F: read-out: Vz/F, mean
# Experimental: In Part 1a, plasma samples were collected before dosing and at 10 post-dose timepoints on Day 1 (30 minutes, 1 hour, followed by every hour until 6 hours, and then every 2 hours until 12 hours), and single samples on Day 2 (at 24 hours) and Day 3 (at 48 hours). In Part 1b, timepoints included at least pre-dose and at 10 post-dose timepoints, including plasma sampling at the same time of CSF sampling. In Part 2, on Day 1 and Day 14, plasma samples were collected at pre-dose and at 10 to 11 post-dose timepoints. In addition, plasma samples were collected on Days 2, 3, 5, 7, 11, 15, 16, and 17.
# PK population included all participants exposed to Compound 1 with no major or critical deviations related to Compound 1 and for whom PK data were considered sufficient and interpretable. PK parameters were summarized by descriptive statistics for each dose level group. Distribution of Tmax values was represented by histogram plots for each dose level group. In Part 1a, dose proportionality was assessed using a linear model on Cmax, AUClast and AUC. In Part 2, all PK analyses were performed separately for each regimen (OD and BID). Steady state was assessed on Ctrough using a non-linear model. Accumulation was assessed using a linear model on log-transformed accumulation ratio. Dose proportionality was assessed using a power model on Cmax and AUCtau on Day 1 and Day 14, separately. Variance components of log-transformed Cmax and AUCtau were estimated using a linear model. In Part 1b, CSF concentration was described by dose level group and CSF to plasma unbound concentration ratios calculated were described in the same way. 4β-hydroxycholesterol on Day 14 versus Day 1 pre-dose concentration ratios were summarized using descriptive statistics by dose level group and point estimates with 90% confidence interval (90% CI) for the geometric mean of the log-transformed Day14/Day1 ratio was calculated in Part 2.
# [1] = Part 2, cohorts at 10 and 20 mg QD
# [2] = Part 2, cohorts at 15 and 20 mg BID
# [3] = Part 2 Day 1, 10 mg QD, tau 24 hours
# [4] = Part 2 Day 1, 15 mg BID, fasted
# [5] = Part 2 Day 1, 20 mg BID, fasted
# [6] = Part 2 Day 1, 20 mg BID, tau 12 hours
# [7] = Part 2 Day 14 steady state, 10 mg QD
# [8] = Part 2 Day 14 steady state, 15 mg BID
# [9] = Part 2 Day 14 steady state, 20 mg BID
# [10] = Part 2 Day 14 steady state, 20 mg QD
# [11] = Part 2 Day 14 steady state, 20 mg QD, tau 24 hours
smiles,measurement,setting,value
"CC(C)(C(=O)N1CCOc2c(C#N)cncc2C1)C(F)F [Compound 1, 4-(3,3-difluoro-2,2-dimethyl-propanoyl)-3,5-dihydro-2H-pyrido[3,4-f] [1,4]oxazepine-9-carbonitrile]","Time to steady state (Tss), 50% median, point estimate",[1],1.81 days
same,"Time to steady state (Tss), 90% quantile, point estimate",[1],2.45 days
same,"Time to steady state (Tss), 50% median, point estimate",[2],1.43 days
same,"Time to steady state (Tss), 90% quantile, point estimate",[2],1.65 days
same,"Cmax, Gmean","Part 2 Day 1, 10 mg QD, fasted",(157) [20.7] ng/mL
same,"Tmax, median","Part 2 Day 1, 10 mg QD, fasted",1.00 h
same,"AUCtau, Gmean",[3],(1080) h*ng/ml
same,"AUCtau, mean ± SD",[3],1110 ± 268 ng·h/mL
same,"Cmax, Gmean",[4],(211) [44.2] ng/mL
same,"Tmax, median",[4],1.00 h
same,"AUCtau, Gmean","Part 2 Day 1, 15 mg BID, tau 12 hours",(1100) [33.1] h*ng/ml
same,"Cmax, Gmean",[5],(205) [20.3] ng/mL
same,"Cmax, mean ± SD",[5],209 ± 42.4 ng/mL
same,"Tmax, median",[5],2.00 h
same,"AUCtau, Gmean",[6],(1350) h*ng/ml
same,"AUCtau, mean ± SD",[6],1370 ± 252 ng·h/mL
same,"Cmax, Gmean","Part 2 Day 1, 20 mg QD, fasted",(240) [20.2] ng/mL
same,"Tmax, median","Part 2 Day 1, 20 mg QD, fasted",1.50 h
same,"AUCtau, Gmean","Part 2 Day 1, 20 mg QD, tau 24 hours",(1860) [22.5 h*ng/ml
same,"CLSS/F, Gmean","Part 2 Day 14, 10 mg QD",(7.08) [25.9] L/h
same,"CLSS/F, mean ± SD","Part 2 Day 14, 10 mg QD",7.30 ± 1.89 L/h
same,"Ctrough, Gmean","Part 2 Day 14, 10 mg QD",(19.9) [57.0] ng/mL
same,"Ctrough, mean ± SD","Part 2 Day 14, 10 mg QD",22.8 ± 13.0 ng/mL
same,"T1/2z, Gmean","Part 2 Day 14, 10 mg QD",(8.87) [23.2] h
same,"T1/2z, mean ± SD","Part 2 Day 14, 10 mg QD",9.07 ± 2.11 h
same,"CLSS/F, Gmean","Part 2 Day 14, 15 mg BID",(9.16) [30.0] L/h
same,"CLSS/F, mean ± SD","Part 2 Day 14, 15 mg BID",9.54 ± 2.86 L/h
same,"Ctrough, Gmean","Part 2 Day 14, 15 mg BID",(79.3) [33.0] ng/mL
same,"Ctrough, mean ± SD","Part 2 Day 14, 15 mg BID",83.7 ± 27.4 ng/mL
same,"T1/2z, Gmean","Part 2 Day 14, 15 mg BID",(7.21) [15.6] h
same,"T1/2z, mean ± SD","Part 2 Day 14, 15 mg BID",7.29 ± 1.14 h
same,"CLSS/F, Gmean","Part 2 Day 14, 20 mg BID",(9.27) [24.9] L/h
same,"CLSS/F, mean ± SD","Part 2 Day 14, 20 mg BID",9.53 ± 2.37 L/h
same,"Ctrough, Gmean","Part 2 Day 14, 20 mg BID",(99.3) [40.0] ng/mL
same,"Ctrough, mean ± SD","Part 2 Day 14, 20 mg BID",107 ± 42.7 ng/mL
same,"T1/2z, Gmean","Part 2 Day 14, 20 mg BID",(7.37) [23.0] h
same,"T1/2z, mean ± SD","Part 2 Day 14, 20 mg BID",7.54 ± 1.74 h
same,"CLSS/F, Gmean","Part 2 Day 14, 20 mg QD",(9.40) [22.2] L/h
same,"CLSS/F, mean ± SD","Part 2 Day 14, 20 mg QD",9.60 ± 2.14 L/h
same,"Ctrough, Gmean","Part 2 Day 14, 20 mg QD",(30.4) [49.0] ng/mL
same,"Ctrough, mean ± SD","Part 2 Day 14, 20 mg QD",34.2 ± 16.6 ng/mL
same,"T1/2z, Gmean","Part 2 Day 14, 20 mg QD",(8.53) [19.0] h
same,"T1/2z, mean ± SD","Part 2 Day 14, 20 mg QD",8.68 ± 1.65 h
same,"Cmax, Gmean",[7],(158) [31.9] ng/mL
same,"Tmax, median",[7],1.00 h
same,"AUCtau, Gmean","Part 2 Day 14 steady state, 10 mg QD, tau 24 hours",(1410) [27.4] h*ng/mL
same,"Cmax, Gmean",[8],(268) [36.3] ng/mL
same,"Tmax, median",[8],1.00 h
same,"AUCtau, Gmean","Part 2 Day 14 steady state, 15 mg BID, tau 12 hours",(1640) [32.5] h*ng/mL
same,"Cmax, Gmean",[9],(353) [19.9] ng/mL
same,"Tmax, median",[9],1.00 h
same,"AUCtau, Gmean","Part 2 Day 14 steady state, 20 mg BID, tau 12 hours",(2160) [25.9] h*ng/mL
same,"Cmax, Gmean",[10],(250) [22.7] ng/mL
same,"Tmax, median",[10],2.00 h
same,"AUCtau, Gmean",[11],(2130) [21.4] h*ng/mL
same,"AUCtau, mean ± SD",[11],2170 ± 465 ng·h/mL
same,"Accumulation ratio (AUC0-24h), Day 14/Day 1",Pooled doses QD,~1.22
same,Within-subject variability for AUCtau,QD cohorts,8.0%
same,Within-subject variability for Cmax,QD cohorts,15.8%
same,Total variability for AUCtau,QD dosing regimen,21.6%
same,Total variability for Cmax,QD dosing regimen,20.6%
same,AUC,"10 mg, Part 1a single 10 mg fasted, read-out: AUC, mean",1250 ng·h/mL
same,AUC(0-t),"10 mg, Part 1a single 10 mg fasted, read-out: AUClast, mean",1200 ng·h/mL
same,Cmax,"10 mg, Part 1a single 10 mg fasted, read-out: Cmax, mean",119 ng/mL
same,AUC,"10 mg, Part 1b single 10 mg fed, read-out: AUC, mean",1460 ng·h/mL
same,AUC(0-t),"10 mg, Part 1b single 10 mg fed, read-out: AUClast, mean",1220 ng·h/mL
same,Cmax,"10 mg, Part 2 Day 1, 10 mg QD, fasted, read-out: Cmax, mean ± SD",161 ± 33.2 ng/mL
same,AUC,"10 mg, Part 2 Day 14 steady state, 10 mg QD, tau 24 hours, read-out: AUCtau, mean ± SD",1460 ± 399 ng·h/mL
same,Cmax,"10 mg, Part 2 Day 14 steady state, 10 mg QD, read-out: Cmax, mean ± SD",164 ± 52.3 ng/mL
same,Cmax,"15 mg, Part 2 Day 1, 15 mg BID, fasted, read-out: Cmax, mean ± SD",229 ± 101 ng/mL
same,AUC,"15 mg, Part 2 Day 1, 15 mg BID, tau 12 hours, read-out: AUCtau, mean ± SD",1150 ± 380 ng·h/mL
same,AUC,"15 mg, Part 2 Day 14 steady state, 15 mg BID, tau 12 hours, read-out: AUCtau, mean ± SD",1710 ng·h/mL
same,Cmax,"15 mg, Part 2 Day 14 steady state, 15 mg BID, read-out: Cmax, mean ± SD",284 ng/mL
same,AUC(0-t),"20 mg, 20 mg BID, read-out: AUC0-24 h (corresponding to AUC0-12 h*2)",15 µM·h
same,Cmax,"20 mg, 20 mg BID, read-out: Mean observed Cmax",1220 nM
same,AUC(0-t),"20 mg, 20 mg QD, MAD study, read-out: Mean observed AUC0-24 at steady state",7.35 µM·h
same,Cmax,"20 mg, Part 1a single 20 mg fasted, read-out: Cmax, mean",245 ng/mL
same,Cmax,"20 mg, Part 2 Day 1, 20 mg QD, fasted, read-out: Cmax, mean ± SD",245 ± 49.5 ng/mL
same,AUC,"20 mg, Part 2 Day 1, 20 mg QD, tau 24 hours, read-out: AUCtau, mean ± SD",1910 ± 429 ng·h/mL
same,AUC,"20 mg, Part 2 Day 14 steady state, 20 mg BID, tau 12 hours, read-out: AUCtau, mean ± SD",2220 ± 574 ng·h/mL
same,Cmax,"20 mg, Part 2 Day 14 steady state, 20 mg BID, read-out: Cmax, mean ± SD",359 ± 71.6 ng/mL
same,Cmax,"20 mg, Part 2 Day 14 steady state, 20 mg QD, read-out: Cmax, mean ± SD",255 ± 58 ng/mL
same,AUC,"30 mg, Part 1a single 30 mg fasted, read-out: AUC, mean",2570 ng·h/mL
same,AUC(0-t),"30 mg, Part 1a single 30 mg fasted, read-out: AUClast, mean",2540 ng·h/mL
same,Cmax,"30 mg, Part 1a single 30 mg fasted, read-out: Cmax, mean",439 ng/mL
same,AUC,"40 mg, Part 1a single 40 mg fasted, read-out: AUC, mean",5460 ng·h/mL
same,AUC(0-t),"40 mg, Part 1a single 40 mg fasted, read-out: AUClast, mean",5390 ng·h/mL
same,Cmax,"40 mg, Part 1a single 40 mg fasted, read-out: Cmax, mean",576 ng/mL
same,AUC,"40 mg, Part 1b single 40 mg fed, read-out: AUC, mean",5060 ng·h/mL
same,AUC(0-t),"40 mg, Part 1b single 40 mg fed, read-out: AUClast, mean",4100 ng·h/mL
same,Cmax,"40 mg, Part 1b single 40 mg fed, read-out: Cmax, mean",381 ng/mL
same,Tmax,"Part 1a, single 10 to 40 mg, fasted, read-out: Median tmax across doses",1 to 1.5 h
same,Tmax,"Part 2, single or repeated administration, fasted, read-out: Median Tmax across dose levels",1 to 2 h
same,Vd/F,Part 1a single 40 mg fasted,71.7 L
same,Vd/F,Part 1b single 10 mg fed,86 L
